From ChEMBL document CHEMBL1201862, “PubChem BioAssay data set” (2004)
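Five concentrations, 48 hours, 96-well plates. The concentration for 50% growth inhibition is given as GI50.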 The source made the active and inactive calls. Cut-off read from the data, not from the text of the source: active = GI50 up to about 1.1 µM and inactive = higher.

Assays:
Test in all cases: inhibition of tumour cell growth, NCI panel, 48 h
[1] = system: DMS-114
[2] = system: LXFL 529
[3] = system: 786-0
[4] = system: MOLT-4
[5] = system: Malme-3M
[6] = system: DMS-273
[7] = system: HCT-116
[8] = system: NCI-H226
[9] = system: U-251
[10] = system: HCT-15
[11] = system: SNB-78
[12] = system: M19-MEL
[13] = system: UO-31
[14] = system: SF-539
[15] = system: LOX IMVI
[16] = system: OVCAR-3
[17] = system: IGROV-1
[18] = system: UACC-62
[19] = system: RXF 393
[20] = system: M14
[21] = system: EKVX
[22] = system: COLO 205
[23] = system: SW-620
[24] = system: HOP-18
[25] = system: K562
[26] = system: SK-MEL-2
[27] = system: SF-295
[28] = system: UACC-257
[29] = system: HCC 2998
[30] = system: HT-29
[31] = system: KM12
[32] = system: SK-MEL-28
[33] = system: A498
[34] = system: SK-MEL-5
[35] = system: OVCAR-4
[36] = system: NCI-H23
[37] = system: A549
[38] = system: HOP-92
[39] = system: SN12C
[40] = system: SR
[41] = system: SF-268
[42] = system: DLD-1
[43] = system: ACHN
[44] = system: SK-OV-3
[45] = system: CAKI-1
[46] = system: HL-60
[47] = system: OVCAR-5
[48] = system: NCI-H522
[49] = system: OVCAR-8
[50] = system: NCI-H460
[51] = system: CCRF-CEM
[52] = system: SNB-75
[53] = system: KM-20L2
[54] = system: SNB-19
[55] = system: HOP-62
[56] = system: TK-10
[57] = system: RPMI-8226

In the case of `CCOC(=O)C1=C(Nc2ccc(Cl)cc2Cl)OC/C1=N\NS(=O)(=O)c1ccc(C)cc1`, the GI50 [1] is reported as > 100 µM (inactive), the GI50 [2] is reported as > 100 µM (inactive) and the GI50 [3] is reported as > 100 µM (inactive). For the same molecule, the GI50 [4] was > 100 µM (inactive), the GI50 [5] was > 100 µM (inactive) and the GI50 [6] was > 100 µM (inactive). The GI50 [7] was > 100 µM (inactive), the GI50 [8] was > 100 µM (inactive) and the GI50 [9] was > 100 µM (inactive). The GI50 [10] was over 100 µM, the GI50 [11] was > 100 µM (inactive) and the GI50 [12] was > 100 µM (inactive). For the same molecule, the GI50 [13] was > 100 µM (inactive), the GI50 [14] was > 100 µM (inactive) and the GI50 [15] was > 100 µM (inactive). For the same molecule, the GI50 [16] was 41.2 µM (inactive), the GI50 [17] was > 100 µM (inactive) and the GI50 [18] was 92.9 µM (inactive). For the same molecule, the GI50 [19] was > 100 µM (inactive), the GI50 [20] was > 100 µM (inactive) and the GI50 [21] was 91.6 µM (inactive). The GI50 [22] was > 100 µM (inactive), the GI50 [23] was > 100 µM (inactive) and the GI50 [24] was > 100 µM (inactive). The GI50 [25] was > 100 µM (inactive), the GI50 [26] was > 100 µM (inactive) and the GI50 [27] was > 100 µM (inactive). The GI50 [28] was > 100 µM (inactive), the GI50 [29] was > 100 µM (inactive) and the GI50 [30] was > 100 µM (inactive). For the same molecule, the GI50 [31] was > 100 µM (inactive), the GI50 [32] was > 100 µM (inactive) and the GI50 [33] was > 100 µM (inactive). The GI50 [34] was > 100 µM (inactive), the GI50 [35] was > 100 µM (inactive) and the GI50 [36] was > 100 µM (inactive). For the same molecule, the GI50 [37] was > 100 µM (inactive), the GI50 [38] was > 100 µM (inactive) and the GI50 [39] was > 100 µM (inactive). The GI50 [40] was > 100 µM (inactive), the GI50 [41] was > 100 µM (inactive) and the GI50 [42] was > 100 µM (inactive). For the same molecule, the GI50 [43] was > 100 µM (inactive), the GI50 [44] was > 100 µM (inactive) and the GI50 [45] was > 100 µM (inactive). The GI50 [46] was > 100 µM (inactive), the GI50 [47] was > 100 µM (inactive) and the GI50 [48] was > 100 µM (inactive). For the same molecule, the GI50 [49] was > 100 µM (inactive), the GI50 [50] was > 100 µM (inactive) and the GI50 [51] was > 100 µM (inactive). For the same molecule, the GI50 [52] was > 100 µM (inactive), the GI50 [53] was > 100 µM (inactive) and the GI50 [54] was > 100 µM (inactive). The GI50 [55] was > 100 µM (inactive) and the GI50 [56] was > 100 µM (inactive).
In the case of `O=C(Cc1ccc([N+](=O)[O-])c([N+](=O)[O-])c1CC(=O)C(=O)Nc1cc(Cl)ccc1Cl)C(=O)Nc1cc(Cl)ccc1Cl`, the GI50 [1] is reported as 45.5 µM (inactive), the GI50 [2] is reported as > 100 µM (inactive) and the GI50 [3] is reported as > 100 µM (inactive). For the same molecule, the GI50 [4] was 30 µM (inactive), the GI50 [5] was > 100 µM (inactive) and the GI50 [6] was 30.3 µM (inactive). For the same molecule, the GI50 [7] was > 100 µM (inactive), the GI50 [8] was 82.2 µM (inactive) and the GI50 [9] was 24.2 µM (inactive). The GI50 [10] was 21.7 µM, the GI50 [11] was 80 µM (inactive) and the GI50 [12] was > 100 µM (inactive). For the same molecule, the GI50 [13] was > 100 µM (inactive), the GI50 [14] was > 100 µM (inactive) and the GI50 [15] was 26.2 µM (inactive). For the same molecule, the GI50 [16] was > 100 µM (inactive), the GI50 [17] was > 100 µM (inactive) and the GI50 [18] was > 100 µM (inactive). The GI50 [19] was 30.8 µM (inactive), the GI50 [20] was > 100 µM (inactive) and the GI50 [21] was > 100 µM (inactive). The GI50 [22] was 22.9 µM (inactive), the GI50 [23] was 37.9 µM (inactive) and the GI50 [24] was > 100 µM (inactive). The GI50 [25] was 33.5 µM (inactive), the GI50 [26] was > 100 µM (inactive) and the GI50 [27] was > 100 µM (inactive). The GI50 [28] was > 100 µM (inactive), the GI50 [29] was > 100 µM (inactive) and the GI50 [30] was > 100 µM (inactive). For the same molecule, the GI50 [57] was 28 µM (inactive), the GI50 [31] was > 100 µM (inactive) and the GI50 [32] was > 100 µM (inactive). For the same molecule, the GI50 [33] was > 100 µM (inactive), the GI50 [34] was > 100 µM (inactive) and the GI50 [35] was > 100 µM (inactive). The GI50 [36] was > 100 µM (inactive), the GI50 [37] was > 100 µM (inactive) and the GI50 [38] was > 100 µM (inactive). The GI50 [39] was 59.8 µM (inactive), the GI50 [40] was > 100 µM (inactive) and the GI50 [41] was > 100 µM (inactive). For the same molecule, the GI50 [42] was > 100 µM (inactive), the GI50 [43] was > 100 µM (inactive) and the GI50 [44] was > 100 µM (inactive). For the same molecule, the GI50 [45] was > 100 µM (inactive), the GI50 [46] was > 100 µM (inactive) and the GI50 [47] was > 100 µM (inactive). For the same molecule, the GI50 [49] was > 100 µM (inactive), the GI50 [50] was 72.6 µM (inactive) and the GI50 [51] was 17.9 µM (inactive). For the same molecule, the GI50 [52] was > 100 µM (inactive), the GI50 [53] was > 100 µM (inactive) and the GI50 [54] was > 100 µM (inactive). For the same molecule, the GI50 [55] was > 100 µM (inactive) and the GI50 [56] was > 100 µM (inactive).
